Results as given in patent US20240209028A1, “CNP COMPOUNDS” (priority 2022, published 2024).
Starred links: 1 amine or outer side, 2 acyl side, 3 side chain; linkers in the order of their positions; H or OH if unused. Positions of bridges follow the written chain, without caps; N, C: chain ends. Residues, ends and D or L forms follow the SMILES beside them. *: point of attachment. C18 diacid = O=C(O)CCCCCCCCCCCCCCCCC(=O)*; γGlu = O=C(O)[C@H](CCC(=O)[*:2])N[*:1]; AEEA = NCCOCCOCC(=O)O

Legend:
[1] = CNP local tolerance study in LYD pigs (s.c. injection, histopathology); format: in vivo, domestic LYD pig; conditions: LYD pig, s.c., approx. 4400 μM, 4 or 5 days after injection
Source text: The purpose of this study was to evaluate the local tissue reaction response to subcutaneous injection of CNP compounds in pigs.
Procedure: In domestic pigs, the injection site was subjected to histopathologic examination after subcutaneous dosing. Injections were placed mid-back between the shoulder and hip on both sides of the dorsal midline, and one or two days before injection sites of 2×2 cm were shaved and marked by permanent ink under light anaesthesia. Each injection consisted of 100 or 200 μl formulation with a concentration of approx. 4400 μM. CNP compound formulations were prepared according to the principles in General Methods of Preparation—Method G, and were either A) 8 mM sodium phosphate, 250 mM glycerol, pH 6.5, B) 5 mM sodium acetate, 250 mM glycerol, pH 4.0 or C) 5 mM sodium acetate, 240 mM propylene glycol, pH 4.0 and physiological saline was included as negative control.
On Day 1 the pigs were lightly anaesthetised. An insulin pen (NovoPen 4) and insulin needle (NovoTwist 32G/5 mm) were used for accurate deposition of the CNP formulations in the subcutaneous fat tissue with the needle perpendicular to the skin. On Day 5 (4 days post injection) or 6 (5 days post injection), the pigs were euthanised, and the injection sites were removed and fixed in 4% phosphate buffered neutral formaldehyde in sealed plastic containers. The tissue blocks were prefixed for 2-4 hours in 10% buffered formalin, cut into 2 mm thick slabs with a multi knife, examined for macroscopic changes and finally fixed overnight in cassettes. Two slabs of tissue were selected for light microscopic evaluation where the tissue reaction was maximal or alternatively in the central part of the injection site. Three to four 2-4 μm sections were cut from three levels at 100 μm distance, stained with haematoxylin and eosin (H&E) and evaluated in a light microscope. Histopathological changes were graded on a 5-level scale ((Minimal (Min), Mild (Mil), Moderate (Mod), Marked (Mar) and Severe (Sev)). The studies are summarised in Table 18.
Results: The results are summarised in Table 19. * Necrosis was used as a marker for local subcutaneous reactions; **NAD: No Abnormalities Detected

[2] = Thioflavin T (ThT) assay: lagtime and peptide recovery; format: physicochemical; conditions: assay terminated after 45 hours
How it was run: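 ThT (final about 1 μM) was added to peptide supernatants at pH 4.0 and 6.5 and incubated at 37 °C with orbital shaking for 45 h. Fluorescence (ex 444/em 485 nm) was read every 20 min, and lag-time was taken as the time to onset of signal rise. Recovery is the RP-UPLC (215 nm) total peak area after vs. before incubation.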

Row | Compound | Number of injections by severity of necrosis: Min. [1] | Number of injections by severity of necrosis: NAD [1] | also measured
1 | CC[C@H](C)[C@@H]1NC(=O)[C@H](CCCNC(=N)N)NC(=O)[C@H](CC(=O)O)NC(=O)[C@H](CC(C)C)NC(=O)[C@@H]2CCCN2C(=O)[C@H](CC(C)C)NC(=O)CNC(=O)[C@H](Cc2ccccc2)NC(=O)[C@@H](NC(=O)CNC(=O)[C@H](CCC(N)=O)NC(=O)[C@H](CO)NC(=O)[C@H](CC(C)C)NC(=O)CNC(=O)[C@H](CCCCN)NC(=O)[C@H](CCCCN)NC(=O)[C@H](CCC(N)=O)NC(=O)[C@H](C)NC(=O)CNC(=O)[C@H](CCCCN)NC(=O)[C@H](Cc2ccc(O)cc2)NC(=O)[C@H](CCCCN)NC(=O)[C@H](CCCNC(=N)N)NC(=O)[C@H](C)NC(=O)COCCOCCNC(=O)COCCOCCNC(=O)COCCOCCNC(=O)COCCOCCNC(=O)CC[C@H](NC(=O)CC[C@H](NC(=O)CC[C@H](NC(=O)CC[C@H](NC(=O)CC[C@H](NC(=O)CCCCCCCCCCCCCCCCC(=O)O)C(=O)O)C(=O)O)C(=O)O)C(=O)O)C(=O)O)CSSC[C@@H](C(=O)O)NC(=O)CNC(=O)[C@H](CC(C)C)NC(=O)CNC(=O)[C@H](CO)NC(=O)[C@H](CC(C)C)NC(=O)[C@H](CO)NC(=O)CNC1=O [Compound 9407] ({C18 diacid-γGlu-γGlu-γGlu-γGlu-γGlu-AEEA-AEEA-AEEA-AEEA}-ARKYKGAQKKGLSQGCFGLPLDRIGSLSGLGC-OH; disulfide 16-32) | 1 | 3 | 
2 | CC[C@H](C)[C@@H]1NC(=O)[C@H](CCCNC(=N)N)NC(=O)[C@H](CC(=O)O)NC(=O)[C@H](CC(C)C)NC(=O)[C@@H]2CCCN2C(=O)[C@H](CC(C)C)NC(=O)CNC(=O)[C@H](Cc2ccccc2)NC(=O)[C@@H](NC(=O)CNC(=O)[C@H](CCC(N)=O)NC(=O)[C@H](CO)NC(=O)CNC(=O)CNC(=O)[C@H](CCCCN)NC(=O)[C@H](CCCCN)NC(=O)[C@H](CCC(N)=O)NC(=O)[C@H](C)NC(=O)CNC(=O)[C@H](CCCCN)NC(=O)[C@H](Cc2ccc(O)cc2)NC(=O)COCCOCCNC(=O)COCCOCCNC(=O)COCCOCCNC(=O)COCCOCCNC(=O)CC[C@H](NC(=O)CC[C@H](NC(=O)CCCCCCCCCCCCCCCCC(=O)O)C(=O)O)C(=O)O)CSSC[C@@H](C(=O)O)NC(=O)CNC(=O)[C@H](CC(C)C)NC(=O)CNC(=O)[C@H](CO)NC(=O)[C@H](CC(C)C)NC(=O)[C@H](CO)NC(=O)CNC1=O [Compound 9435] ({C18 diacid-γGlu-γGlu-AEEA-AEEA-AEEA-AEEA}-YKGAQKKGGSQGCFGLPLDRIGSLSGLGC-OH; disulfide 13-29) | 3 |  | Number of injections by severity of necrosis: Mild [1]: 1
3 | CC[C@H](C)[C@@H]1NC(=O)[C@H](CCCNC(=N)N)NC(=O)[C@H](CC(=O)O)NC(=O)[C@H](CC(C)C)NC(=O)[C@@H]2CCCN2C(=O)[C@H](CC(C)C)NC(=O)CNC(=O)[C@H](Cc2ccccc2)NC(=O)[C@@H](NC(=O)CNC(=O)[C@H](CCC(N)=O)NC(=O)[C@H](CO)NC(=O)[C@H](CC(C)C)NC(=O)CNC(=O)[C@H](CCCCN)NC(=O)[C@H](CCCCN)NC(=O)[C@H](CCC(N)=O)NC(=O)[C@H](C)NC(=O)CNC(=O)[C@H](CCCCN)NC(=O)[C@H](Cc2ccc(O)cc2)NC(=O)COCCOCCNC(=O)COCCOCCNC(=O)COCCOCCNC(=O)COCCOCCNC(=O)CC[C@H](NC(=O)CC[C@H](NC(=O)CC[C@H](NC(=O)CCCCCCCCCCCCCCCCC(=O)O)C(=O)O)C(=O)O)C(=O)O)CSSC[C@@H](C(=O)O)NC(=O)CNC(=O)[C@H](CC(C)C)NC(=O)CNC(=O)[C@H](CO)NC(=O)[C@H](CC(C)C)NC(=O)[C@H](CO)NC(=O)CNC1=O [Compound 9480] ({C18 diacid-γGlu-γGlu-γGlu-AEEA-AEEA-AEEA-AEEA}-YKGAQKKGLSQGCFGLPLDRIGSLSGLGC-OH; disulfide 13-29) |  | 4 | 
4 | CC[C@H](C)[C@@H]1NC(=O)[C@H](CCCNC(=N)N)NC(=O)[C@H](CC(=O)O)NC(=O)[C@H](CC(C)C)NC(=O)[C@@H]2CCCN2C(=O)[C@H](CC(C)C)NC(=O)CNC(=O)[C@H](Cc2ccccc2)NC(=O)[C@@H](NC(=O)CNC(=O)[C@H](CO)NC(=O)[C@H](CO)NC(=O)[C@H](CC(C)C)NC(=O)CNC(=O)[C@H](CCCCN)NC(=O)[C@H](CCCCN)NC(=O)[C@H](CCC(N)=O)NC(=O)[C@H](C)NC(=O)CNC(=O)[C@H](CCCCN)NC(=O)[C@H](Cc2ccc(O)cc2)NC(=O)[C@H](CCCCN)NC(=O)[C@H](CCCNC(=N)N)NC(=O)[C@H](C)NC(=O)[C@H](CCC(N)=O)NC(=O)[C@@H]2CCCN2C(=O)[C@H](Cc2c[nH]cn2)NC(=O)[C@H](CCC(=O)O)NC(=O)[C@H](CCC(N)=O)NC(=O)CC[C@H](NC(=O)CC[C@H](NC(=O)CC[C@H](NC(=O)CC[C@H](NC(=O)CC[C@H](NC(=O)CCCCCCCCCCCCCCCCC(=O)O)C(=O)O)C(=O)O)C(=O)O)C(=O)O)C(=O)O)CSSC[C@@H](C(=O)O)NC(=O)CNC(=O)[C@H](CC(C)C)NC(=O)CNC(=O)[C@H](CO)NC(=O)[C@H](CC(C)C)NC(=O)[C@H](CO)NC(=O)CNC1=O [Compound 9482] ({C18 diacid-γGlu-γGlu-γGlu-γGlu-γGlu}-QEHPQARKYKGAQKKGLSSGCFGLPLDRIGSLSGLGC-OH; disulfide 21-37) |  | 4 | 
5 | CC[C@H](C)[C@@H]1NC(=O)[C@H](CCCNC(=N)N)NC(=O)[C@H](CC(=O)O)NC(=O)[C@H](CC(C)C)NC(=O)[C@@H]2CCCN2C(=O)[C@H](CC(C)C)NC(=O)CNC(=O)[C@H](Cc2ccccc2)NC(=O)[C@@H](NC(=O)CNC(=O)[C@H](CCC(N)=O)NC(=O)[C@H](CO)NC(=O)[C@H](CC(C)C)NC(=O)CNC(=O)[C@H](CCCCN)NC(=O)[C@H](CCCCN)NC(=O)[C@H](CCC(N)=O)NC(=O)[C@H](C)NC(=O)CNC(=O)[C@@H]2CCCN2C(=O)[C@H](C)NC(=O)[C@H](CCC(N)=O)NC(=O)CNC(=O)COCCOCCNC(=O)COCCOCCNC(=O)CC[C@H](NC(=O)CCCCCCCCCCCCCCCCC(=O)O)C(=O)O)CSSC[C@@H](C(=O)O)NC(=O)CNC(=O)[C@H](CC(C)C)NC(=O)CNC(=O)[C@H](CO)NC(=O)[C@H](CC(C)C)NC(=O)[C@H](CO)NC(=O)CNC1=O [compound 1484] ({C18 diacid-γGlu-AEEA-AEEA}-GQAPGAQKKGLSQGCFGLPLDRIGSLSGLGC-OH; disulfide 15-31; C-terminus assumed) |  |  | LagTime (h) at pH 6.5 ([2]; ThT assay, pH 6.5, 37° C.): 4 h
6 | CC[C@H](C)[C@@H]1NC(=O)[C@H](CCCNC(=N)N)NC(=O)[C@H](CCC(=O)O)NC(=O)[C@H](CC(C)C)NC(=O)[C@@H]2CCCN2C(=O)[C@H](CC(C)C)NC(=O)CNC(=O)[C@H](Cc2ccccc2)NC(=O)[C@@H](NC(=O)CNC(=O)[C@H](CCC(N)=O)NC(=O)[C@H](CO)NC(=O)CNC(=O)CNC(=O)[C@H](CCCCN)NC(=O)[C@H](CCCCN)NC(=O)[C@H](CCC(N)=O)NC(=O)[C@H](C)NC(=O)CNC(=O)[C@H](CCCCN)NC(=O)[C@H](Cc2ccc(O)cc2)NC(=O)COCCOCCNC(=O)COCCOCCNC(=O)COCCOCCNC(=O)COCCOCCNC(=O)CC[C@H](NC(=O)CC[C@H](NC(=O)CCCCCCCCCCCCCCCCC(=O)O)C(=O)O)C(=O)O)CSSC[C@@H](C(=O)O)NC(=O)CNC(=O)[C@H](CC(C)C)NC(=O)CNC(=O)[C@H](CO)NC(=O)[C@H](CC(C)C)NC(=O)[C@H](CO)NC(=O)CNC1=O [compound 1489] ({C18 diacid-γGlu-γGlu-AEEA-AEEA-AEEA-AEEA}-YKGAQKKGGSQGCFGLPLERIGSLSGLGC-OH; disulfide 13-29) |  |  | LagTime (h) at pH 4.0 ([2]; ThT, 37° C., shaking): 45 h
